According to ChEMBL document CHEMBL1201862, “PubChem BioAssay data set” (2004):
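Five concentrations, 48 hours, 96-well plates. The concentration for 50% growth inhibition is given as GI50.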 Activity calls are given as the source filed them. Rule as the data show it: active = GI50 up to about 1.1 µM and inactive = higher.

Columns and labels:
Experiment in all cases: NCI anticancer screen, dose series, 48 h
SK-OV-3 = system: SK-OV-3
COLO 205 = system: COLO 205
MDA-MB-231 = system: MDA-MB-231
UACC-257 = system: UACC-257
MDA-N = system: MDA-N
NCI-H460 = system: NCI-H460
HL-60 = system: HL-60
RXF 393 = system: RXF 393
SK-MEL-2 = system: SK-MEL-2
HT-29 = system: HT-29
MOLT-4 = system: MOLT-4
A498 = system: A498
MCF7 = system: MCF7
SK-MEL-28 = system: SK-MEL-28
HOP-92 = system: HOP-92
EKVX = system: EKVX
HCT-116 = system: HCT-116
SW-620 = system: SW-620
Malme-3M = system: Malme-3M
OVCAR-4 = system: OVCAR-4

SMILES | GI50 (SK-OV-3) | GI50 (COLO 205) | GI50 (MDA-MB-231) | GI50 (UACC-257) | GI50 (MDA-N) | GI50 (NCI-H460) | GI50 (HL-60) | GI50 (RXF 393) | GI50 (SK-MEL-2) | GI50 (HT-29) | GI50 (MOLT-4) | GI50 (A498) | GI50 (MCF7) | GI50 (SK-MEL-28) | GI50 (HOP-92) | GI50 (EKVX) | GI50 (HCT-116) | GI50 (SW-620) | GI50 (Malme-3M) | GI50 (OVCAR-4)
CCCC1(N)CC(OC)OC(C)C1O (centres undefined) | > 100 µM (inactive) | > 100 µM (inactive) | > 100 µM (inactive) | > 100 µM (inactive) | > 100 µM (inactive) | > 100 µM (inactive) | > 100 µM (inactive) | > 100 µM (inactive) | > 100 µM (inactive) | > 100 µM (inactive) | > 100 µM (inactive) | > 100 µM (inactive) | > 100 µM (inactive) | > 100 µM (inactive) | > 100 µM (inactive) | > 100 µM (inactive) | > 100 µM (inactive) | > 100 µM (inactive) | > 100 µM (inactive) | 
O=[N+]([O-])c1ccc2c(c1)c(S(=O)(=O)O)cc1nonc12 | > 100 µM (inactive) | > 100 µM (inactive) | > 100 µM (inactive) | > 100 µM (inactive) | > 100 µM (inactive) | > 100 µM (inactive) | > 100 µM (inactive) |  | > 100 µM (inactive) | > 100 µM (inactive) | > 100 µM (inactive) | > 100 µM (inactive) | > 100 µM (inactive) | > 100 µM (inactive) | > 100 µM (inactive) | > 100 µM (inactive) | > 100 µM (inactive) | > 100 µM (inactive) | > 100 µM (inactive) | > 100 µM (inactive)
CC(CCC(=O)O)[C@H]1CCC2[C@H]3C(CC(=O)[C@@]21C)[C@@]1(C)CCC(O)C[C@H]1C[C@@H]3O (some centres undefined) |  | > 100 µM (inactive) | > 100 µM (inactive) | > 100 µM (inactive) | > 100 µM (inactive) | > 100 µM (inactive) | > 100 µM (inactive) | > 100 µM (inactive) | > 100 µM (inactive) | > 100 µM (inactive) | > 100 µM (inactive) | > 100 µM (inactive) | > 100 µM (inactive) | > 100 µM (inactive) | > 100 µM (inactive) | > 100 µM (inactive) | > 100 µM (inactive) | > 100 µM (inactive) | > 100 µM (inactive) | > 100 µM (inactive)
CCOC(=O)CCc1c(C)c2ccc(O)cc2oc1=O |  | > 100 µM (inactive) | > 100 µM (inactive) | > 100 µM (inactive) | > 100 µM (inactive) | > 100 µM (inactive) | > 100 µM (inactive) | > 100 µM (inactive) | > 100 µM (inactive) | > 100 µM (inactive) | > 100 µM (inactive) | > 100 µM (inactive) | > 100 µM (inactive) | > 100 µM (inactive) | > 100 µM (inactive) | > 100 µM (inactive) | > 100 µM (inactive) | > 100 µM (inactive) | > 100 µM (inactive) | > 100 µM (inactive)
CCC(=O)N(c1ccccc1)C(C)CN1CCC(O)(c2ccccc2)CC1 (centres undefined) | > 100 µM (inactive) | > 100 µM (inactive) | > 100 µM (inactive) | > 100 µM (inactive) | > 100 µM (inactive) |  | > 100 µM (inactive) | > 100 µM (inactive) | > 100 µM (inactive) | 58.3 µM (inactive) | > 100 µM (inactive) | > 100 µM (inactive) | > 100 µM (inactive) | > 100 µM (inactive) | > 100 µM (inactive) | > 100 µM (inactive) | 80.9 µM (inactive) |  | > 100 µM (inactive) | > 100 µM (inactive)
CO[C@]12S[C@@H]3CCCC[C@@]31C(C)(C)C(=O)N2c1ccccc1 | 25.8 µM (inactive) | 14.4 µM (inactive) | 42.2 µM (inactive) | 33.8 µM (inactive) | 42.2 µM (inactive) | 33 µM (inactive) | 14.6 µM (inactive) | 49.5 µM (inactive) | 26.8 µM (inactive) | 47.4 µM (inactive) | 21.7 µM (inactive) | > 100 µM (inactive) | 27.4 µM (inactive) | 75.5 µM (inactive) | 38 µM (inactive) | 55.7 µM (inactive) | 33.2 µM (inactive) | 30.4 µM (inactive) | > 100 µM (inactive) | 
CN(CC(=O)O)c1ncc2c(n1)-c1ccccc1OC2 |  | > 100 µM (inactive) | > 100 µM (inactive) | > 100 µM (inactive) | > 100 µM (inactive) | > 100 µM (inactive) | > 100 µM (inactive) | > 100 µM (inactive) | > 100 µM (inactive) | > 100 µM (inactive) | > 100 µM (inactive) | > 100 µM (inactive) | > 100 µM (inactive) | > 100 µM (inactive) | > 100 µM (inactive) | > 100 µM (inactive) | > 100 µM (inactive) | > 100 µM (inactive) | > 100 µM (inactive) | > 100 µM (inactive)
COc1ccc(-n2c(CCCC(=O)O)nc3c2C(=O)c2ccccc2C3=O)cc1 | > 100 µM (inactive) | 37.1 µM (inactive) | 63.5 µM (inactive) | 27.8 µM (inactive) | 31.4 µM (inactive) | 93.1 µM (inactive) | 31.1 µM (inactive) |  | 84.7 µM (inactive) |  | 68.1 µM (inactive) | > 100 µM (inactive) | 32.6 µM (inactive) | > 100 µM (inactive) | 20.2 µM (inactive) | 60.7 µM (inactive) | 36.6 µM (inactive) | 56.9 µM (inactive) | 15.2 µM (inactive) | 53.3 µM (inactive)
C=CCOC(=O)N1c2ccc(O)cc2[C@@]23O[C@@]24[C@@H]1C#C/C=C\C#C[C@]3(O)C(=O)C[C@@H]4C |  | 36.6 µM (inactive) | > 100 µM (inactive) | > 100 µM (inactive) | > 100 µM (inactive) | 11.5 µM (inactive) | 37.8 µM (inactive) | > 100 µM (inactive) | 77.8 µM (inactive) | 43.5 µM (inactive) | 14.8 µM (inactive) | 42.8 µM (inactive) | 61.8 µM (inactive) | > 100 µM (inactive) | 72.9 µM (inactive) | 78 µM (inactive) | 51.5 µM (inactive) | > 100 µM (inactive) | 98.2 µM (inactive) | 0.0231 µM (active)
COC1=CC(=O)C2=C(C[C@@]3(C)C(=C2)C(CO)=CC[C@H]3O)C1=O | 88.5 µM (inactive) | 27.5 µM (inactive) | 3.86 µM (inactive) | 18.6 µM (inactive) | 19 µM (inactive) | 25.9 µM (inactive) | 1.79 µM (inactive) | 16.4 µM (inactive) |  | 46.1 µM (inactive) | 0.0975 µM (active) | > 100 µM (inactive) | 16 µM (inactive) | 29.6 µM (inactive) | 11 µM (inactive) | 21.8 µM (inactive) | 18.7 µM (inactive) | 25.3 µM (inactive) | 34.2 µM (inactive) | 17.9 µM (inactive)
CCOC(=O)NN(C(=O)OCC)C(C(=O)c1ccccc1)N(NC(=O)OCC)C(=O)OCC | > 100 µM (inactive) | > 100 µM (inactive) | > 100 µM (inactive) | > 100 µM (inactive) | > 100 µM (inactive) | > 100 µM (inactive) | > 100 µM (inactive) | > 100 µM (inactive) |  | > 100 µM (inactive) | > 100 µM (inactive) | > 100 µM (inactive) | > 100 µM (inactive) | > 100 µM (inactive) | > 100 µM (inactive) | > 100 µM (inactive) | > 100 µM (inactive) | > 100 µM (inactive) | > 100 µM (inactive) | > 100 µM (inactive)
COc1ccc(C2C=C(c3ccc4c(c3)OCO4)Oc3c2c(=O)oc2ccccc32)cc1OC (centres undefined) | 0.372 µM (active) | 0.361 µM (active) | 1.36 µM (inactive) |  | 0.15 µM (active) | 0.406 µM (active) | 0.248 µM (active) | 0.252 µM (active) |  | 0.402 µM (active) | 0.968 µM (active) | 0.502 µM (active) | 0.434 µM (active) | > 93.1 µM (inactive) | 34 µM (inactive) | 16.5 µM (inactive) | 0.482 µM (active) | 0.468 µM (active) | 0.366 µM (active) | > 100 µM (inactive)
COc1ccc(/C=C/C(=O)C(C)(C)Br)cc1 | 22.2 µM (inactive) | 15 µM (inactive) | 20 µM (inactive) | 15.5 µM (inactive) | 7.57 µM (inactive) | 18.9 µM (inactive) | 19.5 µM (inactive) | 1.4 µM (inactive) | 12.2 µM (inactive) |  | 3.86 µM (inactive) | 20 µM (inactive) | 5.11 µM (inactive) |  | 11.8 µM (inactive) | 15.1 µM (inactive) | 2.19 µM (inactive) | 2.43 µM (inactive) | 13.5 µM (inactive) | 
Oc1ccc(O)c(Cc2ccccc2)c1 | 32.8 µM (inactive) | 17.4 µM (inactive) | 19 µM (inactive) | 25.9 µM (inactive) | 18 µM (inactive) | 20.7 µM (inactive) | 1.52 µM (inactive) |  | 18.7 µM (inactive) | 37 µM (inactive) | 6.7 µM (inactive) | 43.9 µM (inactive) | 15 µM (inactive) | 33.7 µM (inactive) | 16.3 µM (inactive) | 38.5 µM (inactive) |  | 21.3 µM (inactive) | 26.4 µM (inactive) | 14.2 µM (inactive)
CC(C)/C(Cl)=N/OC(NC(=O)Nc1ccc(Cl)c(Cl)c1)(C(F)(F)F)C(F)(F)F | 18.2 µM (inactive) | 3.17 µM (inactive) | 15.5 µM (inactive) | 13.2 µM (inactive) | 16.4 µM (inactive) | 24.5 µM (inactive) | 2.54 µM (inactive) | 3.42 µM (inactive) |  | 15.4 µM (inactive) | 3.2 µM (inactive) | 18.2 µM (inactive) | 19.4 µM (inactive) | 19.2 µM (inactive) | 10.4 µM (inactive) | 19.4 µM (inactive) | 7.36 µM (inactive) | 1.81 µM (inactive) | 2.37 µM (inactive) | 13 µM (inactive)
